According to patent US8513433B2, “Small molecule inhibitors of PARP activity” (Angion Biomedica Corp., priority 2009, dated 2013):

Key:
[1] = tested on: rat; settings: 45 minutes ischemia, up to six hours reperfusion; drug one minute before reperfusion; cited from earlier work
[2] = target: T1, human PARP-1 (Homo sapiens, UniProt P09874); test: Poly (ADP-Ribose) Polymerase-1 (PARP-1) in vitro enzyme assay (Universal Colorimetric PARP Assay Kit); assay type: biochemical; settings: letter codes; read-out: extent of inhibition of PARP activity (IC50, micromolar)
T1 construct: purchased Trevigen Inc., Gaithersburg, Md
T1 sequence (P09874 whole entry): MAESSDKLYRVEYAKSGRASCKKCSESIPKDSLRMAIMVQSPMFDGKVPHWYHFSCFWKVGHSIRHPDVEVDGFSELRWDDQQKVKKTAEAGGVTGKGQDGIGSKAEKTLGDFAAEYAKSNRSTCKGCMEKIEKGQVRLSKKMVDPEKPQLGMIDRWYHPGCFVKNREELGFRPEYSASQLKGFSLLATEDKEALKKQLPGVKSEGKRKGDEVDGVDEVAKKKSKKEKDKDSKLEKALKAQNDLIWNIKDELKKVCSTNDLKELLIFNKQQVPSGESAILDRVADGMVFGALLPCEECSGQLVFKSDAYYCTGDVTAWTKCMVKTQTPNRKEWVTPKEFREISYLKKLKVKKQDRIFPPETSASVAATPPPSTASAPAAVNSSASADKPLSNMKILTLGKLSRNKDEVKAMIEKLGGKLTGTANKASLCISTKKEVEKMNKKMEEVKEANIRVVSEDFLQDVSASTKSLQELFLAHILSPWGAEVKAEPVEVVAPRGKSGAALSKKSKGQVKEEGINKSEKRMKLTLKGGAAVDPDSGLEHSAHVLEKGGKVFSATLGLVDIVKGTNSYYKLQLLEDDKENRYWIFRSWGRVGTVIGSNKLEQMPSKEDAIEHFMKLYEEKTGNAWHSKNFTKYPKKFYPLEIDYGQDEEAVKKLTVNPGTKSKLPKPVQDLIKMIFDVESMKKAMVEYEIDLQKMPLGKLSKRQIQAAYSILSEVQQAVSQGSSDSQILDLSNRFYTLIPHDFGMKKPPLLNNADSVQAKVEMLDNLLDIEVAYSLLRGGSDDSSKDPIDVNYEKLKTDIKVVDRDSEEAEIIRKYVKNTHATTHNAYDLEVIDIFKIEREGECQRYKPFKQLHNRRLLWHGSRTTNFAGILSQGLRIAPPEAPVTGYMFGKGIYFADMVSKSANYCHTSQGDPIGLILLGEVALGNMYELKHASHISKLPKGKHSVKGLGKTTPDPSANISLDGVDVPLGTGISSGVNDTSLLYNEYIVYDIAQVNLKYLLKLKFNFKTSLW
Source text: Poly (ADP-Ribose) Polymerase-1 (PARP-1) In Vitro Enzyme Assay: Compounds can be screened for inhibitory activity against human PARP-1 in vitro using the Universal Colorimetric PARP Assay Kit (Trevigen Inc., Gaithersburg, Md.) as directed by the supplier. Compounds can be assayed in duplicate in 0.5% DMSO final concentration, negative control is no enzyme, while positive control is DMSO vehicle alone. IC50 determinations can be made using Microsoft Excel. For all cell assays, compounds can be added to cells in 5% DMSO/PBS for a final concentration of 0.5% DMSO.

[3] = tested on: rats; settings: hemorrhagic shock and resuscitation; cited from earlier work
[4] = tested on: mouse; settings: mouse arthritis; inflammatory cell infiltration, hyperplasia of the synovium, tissue necrosis; cited from earlier work
[5] = tested on: Mice; settings: eleven minutes aortic ischemia, 48 hours reperfusion, cited from earlier work
[6] = tested on: PARP-1; settings: agent alone; cited from earlier work
[7] = tested on: vascular smooth muscle cells in tumors; settings: cited from earlier work

SMILES	IC50 [2] [µM]	other results
Oc1cccc2c(O)nccc12 [1,5-dihroxyisoquinoline]	–	kidney function (plasma urea, plasma creatinine, glomerular filtration rate) [1]: improved kidney function
NC(=O)c1cccc2[nH]c(C3NCCc4ccccc43)nc12 (stereo not shown) [2-(1,2,3,4-Tetrahydroisoquinolin-1-yl)-1H-benzo[d]imidazole-4-carboxamide]	< 0.5	–
NC(=O)c1cccc2[nH]c(C3Cc4ccccc4CN3)nc12 (stereo not shown) [2-(1,2,3,4-Tetrahydroisoquinolin-3-yl)-1H-benzo[d]imidazole-4-carboxamide]	< 0.5	–
NC(=O)c1cccc(N)c1 [3-aminobenzamide]	–	kidney function (plasma urea, plasma creatinine, glomerular filtration rate) [1]: improved kidney function
Nc1cccc2cnccc12 [5-aminoisoquinoline]	–	leukocyte-endothelial interaction [3]: decreased leukocyte-endothelial interaction; liver function [3]: improved liver function; liver injury [3]: decreased liver injury
Nc1ccc2oc(=O)ccc2c1I [5-iodo-6-amino-1,2-benzopyrone]	–	severity of the disease as assessed by histological parameters [4]: reduced the severity of the disease
CN(C)CC(=O)Nc1ccc2[nH]c(=O)c3ccccc3c2c1 [PJ34]	–	fibrinolysis stimulated by the ischemia-reperfusion [5]: no apparent affect; steady state levels of a marker for neutrophil infiltration [5]: decrease steady state levels; renal mitochondrial activity ([5]; treated 1 hour before and immediately after ischemia): preserve renal mitochondrial activity
CC[C@@]1(O)C(=O)OCc2c1cc1n(c2=O)Cc2cc3ccccc3nc2-1 [camptothecin]	–	activation of PARP-1 [6]: four-fold activation
COc1cc([C@@H]2c3cc4c(cc3[C@@H](O[C@@H]3O[C@@H]5CO[C@@H](C)O[C@H]5[C@H](O)[C@H]3O)[C@H]3COC(=O)[C@H]23)OCO4)cc(OC)c1O [etoposide]	–	activation of PARP-1 [6]: failed to induce PARP-1
NC(=O)c1cccnc1 [nicotinamide]	–	contraction of vascular smooth muscle cells in tumors [7]: inhibit contraction
CC(C)(C)OC(=O)Nc1ccc2c(c1)CN(C(=O)OC(C)(C)C)C(c1nc3c(C(N)=O)cccc3[nH]1)C2 (stereo not shown) [tert-Butyl 7-((tert-butoxycarbonyl)amino)-3-(4-carbamoyl-1H-benzo[d]imidazol-2-yl)-3,4-dihydroisoquinoline-2(1H)-carboxylate]	> 2	–

More lines, main results first:

IC50 [2] [µM]	SMILES	other results
< 0.5	NC(=O)c1cccc2[nH]c(C3CCc4ccccc4N3)nc12 (stereo not shown) [2-(1,2,3,4-Tetrahydroquinolin-2-yl)-1H-benzo[d]imidazole-4-carboxamide]	–
< 0.5	CC1(c2nc3c(C(N)=O)cccc3[nH]2)Cc2ccccc2CN1 (stereo not shown) [2-(3-Methyl-1,2,3,4-tetrahydroisoquinolin-3-yl)-1H-benzo[d]imidazole-4-carboxamide]	–
< 0.5	NC(=O)c1cccc2[nH]c(C3Cc4ccc(N)cc4CN3)nc12 (stereo not shown) [2-(7-Amino-1,2,3,4-tetrahydroisoquinolin-3-yl)-1H-benzo[d]imidazole-4-carboxamide]	–
< 0.5	NC(=O)c1cccc2[nH]c(C3Cc4ccccc4N3)nc12 (stereo not shown) [2-(Indolin-2yl)-1H-benzo[d]imidazole-4-carboxamide]	–
< 0.5	NC(=O)c1cccc2[nH]c(C3NCc4ccccc43)nc12 (stereo not shown) [2-(Isoindolin-1-yl)-1H-benzo[d]imidazole-4-carboxamide]	–
> 2	NC(=O)c1cccc2[nH]c(C3c4ccccc4CCN3C(=O)OCc3ccccc3)nc12 (stereo not shown) [Benzyl 1-(4-carbamoyl-1H-benzo[d]imidazol-2-yl)-3,4-dihydroisoquinoline-2(1H)-carboxylate]	–
> 2	NC(=O)c1cccc2[nH]c(C3c4ccccc4CN3C(=O)OCc3ccccc3)nc12 (stereo not shown) [Benzyl 1-(4-carbamoyl-1H-benzo[d]imidazol-2-yl)isoindoline-2-carboxylate]	–
> 2	NC(=O)c1cccc2[nH]c(C3Cc4ccccc4N3C(=O)OCc3ccccc3)nc12 (stereo not shown) [Benzyl 2-(4-carbamoyl-1H-benzo[d]imidazol-2-yl)indoline-1-carboxylate]	–
0.5 to 2	NC(=O)c1cccc2[nH]c(C3Cc4ccccc4CN3C(=O)OCc3ccccc3)nc12 (stereo not shown) [Benzyl 3-(4-carbamoyl-1H-benzo[d]imidazol-2-yl)-3,4-dihydroisoquinoline-2-(1H)-carboxylate]	–
> 2	CC1(c2nc3c(C(N)=O)cccc3[nH]2)Cc2ccccc2CN1C(=O)OCc1ccccc1 (stereo not shown) [Benzyl 3-(4-carbamoyl-1H-benzo[d]imidazol-2-yl)-3-methyl-3,4-dihydroisoquinoline-2(1H)-carboxylate]	–
> 2	CC(C)(C)OC(=O)N1c2ccccc2CCC1c1nc2c(C(N)=O)cccc2[nH]1 (stereo not shown) [tert-Butyl 2-(4-carbamoyl-1H-benzo[d]imidazol-2-yl)-3,4-dihydroquinoline-1(2H)-carboxylate]	–
> 2	CC(C)(C)OC(=O)N1Cc2cc(N)ccc2CC1c1nc2c(C(N)=O)cccc2[nH]1 (stereo not shown) [tert-Butyl 7-amino-3-(4-carbamoyl-1H-benzo[d]imidazol-2-yl)-3,4-dihydroisoquinoline-2(1H)-carboxylate]	–
> 2	CC(C)(C)OC(=O)Nc1ccc2c(c1)CNC(c1nc3c(C(N)=O)cccc3[nH]1)C2 (stereo not shown) [tert-Butyl (3-(4-carbamoyl-1H-benzo[d]imidazol-2-yl)-1,2,3,4-tetrahydroisoquinolin-7-yl)carbamates]	–
